Assay results as given in patent US20250041245A1, “ENDOXIFEN FOR TREATMENT OF CANCERS” (Atossa Therapeutics, Inc., priority 2021, published 2025).
Where “and” joins values, the source holds several entries; their conditions need not be identical. Equal values may be shown once. Entries after “also recorded” stand apart in the source; their conditions may differ.

Experiments:
Format in all cases: cell-based, human
[1] = tested on: patient-derived tumor organoids (PDTOs), leiomyosarcoma; experiment: Endoxifen screen in PDTOs: leiomyosarcoma; parameters: key to Personalization Category: Personalization categories range from High, Good, Moderate, Low, to None; Personalization categories range from High, Good, Moderate, Low, to None; Personalization categories range from High, Good, Moderate, Low, to None; Personalization categories range from High, Good, Moderate, Low, to None; Personalization categories range from High, Good, Moderate, Low, to None; key to Sensitivity Category: Sensitivity categories range from High, Good, Moderate, Low, to None; Sensitivity categories range from High, Good, Moderate, Low, to None; Sensitivity categories range from High, Good, Moderate, Low, to None; Sensitivity categories range from High, Good, Moderate, Low, to None; Sensitivity categories range from High, Good, Moderate, Low, to None; AUC: unit not given beside the values; details: each line one patient sample
Procedure: (§1) This example describes screening endoxifen in patient-derived tumor organoids. Endoxifen was tested as a single agent on tumor organoids derived from patients diagnosed with various cancer types using a personalized cancer treatment screening assay (PARIS© Test, SEngine Precision Medicine). The screen utilized patient-derived tumor organoids (PDTOs) along with high-throughput drug screening and machine learning-guided data analysis to quantify the efficacy of endoxifen against samples derived from individual patients diagnosed with various cancer types. PDTOs are self-organizing, three-dimensional organoid structures that recapitulate structural, functional, and genomic aspects of in vivo organs. The PDTOs were grown in culture from patient tumor biopsy samples.
(§2) Fresh patient biopsy samples received following surgery were cleaned and purified. Immune cells (e.g., lymphocytes, blood cells), cancer-associated fibroblasts, and other non-tumor cells were removed to establish pure PDTOs for endoxifen testing. The tumor organoids were grown and expanded by supplying organ- and patient-specific growth factors and nutrients. The PDTOs were treated with increasing concentrations of endoxifen ranging from about 30 nM to about 10 μM, and the drug response was measured using a luminescence readout. A lower luminescence was indicative of a stronger drug response.
(§3) The results were analyzed using a “SEngine Precision Medicine” (SPM) scoring system to assess the sensitivity and personalization of each tumor organoid to endoxifen. The SPM score correlates with clinical outcomes, such that a higher SPM score for a specific PDTO-drug combination predicts a more favorable clinical outcome following treatment of the corresponding patient with the tested drug.
(§4) This example describes testing endoxifen efficacy against 17 distinct cancer types in patient-derived tumor organoids (PDTOs). Screening of PDTOs was performed as described in EXAMPLE 1. For each PDTO sample, the drug response was measured using a luminescent readout over a range of endoxifen concentrations. The drug response was evaluated based on the area under the fitted dose response curve (AUC) and the SPM scoring system. AUC values were normalized for each PDTO. Briefly, data points at each drug concentration were first normalized to a negative control, then a dose response drug curve was approximated using a four-parameter logistic model fitted to the normalized data points. The area under the curve was calculated from the normalized curve. Normalization allowed for comparison of AUC values between patient samples. The SPM scores were based on machine learning models that incorporate values for how well the drug kill patient cells (sensitivity metric), the relative drug responses of a patient to all other patients in a sample database (personalization metric), and knowledge of clinical outcomes for patients that had been evaluated with the personalized cancer screening assay (PARIS® Test, SEngine Precision Medicine).
(§5) The SPM scoring system evaluated whether a PDTO was unresponsive or responsive to endoxifen and the degree of drug response for PDTOs that were responsive to endoxifen. […] The sensitivity category was determined from the sensitivity metric and is a measure of overall cell death of a patient's cells in response to endoxifen at six concentrations. […]

[2] = tested on: patient-derived tumor organoids (PDTOs), melanoma; experiment: Endoxifen screen in PDTOs: melanoma; parameters: key to Personalization Category: Personalization categories range from High, Good, Moderate, Low, to None; Personalization categories range from High, Good, Moderate, Low, to None; Personalization categories range from High, Good, Moderate, Low, to None; Personalization categories range from High, Good, Moderate, Low, to None; Personalization categories range from High, Good, Moderate, Low, to None; key to Sensitivity Category: Sensitivity categories range from High, Good, Moderate, Low, to None; Sensitivity categories range from High, Good, Moderate, Low, to None; Sensitivity categories range from High, Good, Moderate, Low, to None; Sensitivity categories range from High, Good, Moderate, Low, to None; Sensitivity categories range from High, Good, Moderate, Low, to None; AUC: unit not given beside the values
Procedure: as §1, §2, §3, §4
The SPM scoring system evaluated whether a PDTO was unresponsive or responsive to endoxifen and the degree of drug response for PDTOs that were responsive to endoxifen. The SPM scoring system generated metrics an SPM score, predictive of clinical outcome, overall drug response (response category), drug sensitivity (sensitivity category), and drug personalization (personalization category). SPM scores ranged from 1-15, corresponding to the following drug response categories: no response (SPM 1-8), low response (SPM 9), moderate response (SPM 10-11), good response (SPM 12-13), and exceptional response (SPM 14-15). […] Moderate to good drug responses (SPM 10-13) may indicate that a drug has clinical relevance, possibly in combination with other drugs. The sensitivity category was determined from the sensitivity metric and is a measure of overall cell death of a patient's cells in response to endoxifen at six concentrations. […]

[3] = tested on: patient-derived tumor organoids (PDTOs), myxofibrosarcoma; experiment: Endoxifen screen in PDTOs: myxofibrosarcoma; parameters: key to Personalization Category: Personalization categories range from High, Good, Moderate, Low, to None; Personalization categories range from High, Good, Moderate, Low, to None; Personalization categories range from High, Good, Moderate, Low, to None; Personalization categories range from High, Good, Moderate, Low, to None; Personalization categories range from High, Good, Moderate, Low, to None; key to Sensitivity Category: Sensitivity categories range from High, Good, Moderate, Low, to None; Sensitivity categories range from High, Good, Moderate, Low, to None; Sensitivity categories range from High, Good, Moderate, Low, to None; Sensitivity categories range from High, Good, Moderate, Low, to None; Sensitivity categories range from High, Good, Moderate, Low, to None; AUC: unit not given beside the values
Procedure: as §1, §2, §3, §4, §5

[4] = tested on: patient-derived tumor organoids (PDTOs), sarcoma; experiment: Endoxifen screen in PDTOs: sarcoma; parameters: key to Personalization Category: Personalization categories range from High, Good, Moderate, Low, to None; Personalization categories range from High, Good, Moderate, Low, to None; Personalization categories range from High, Good, Moderate, Low, to None; Personalization categories range from High, Good, Moderate, Low, to None; Personalization categories range from High, Good, Moderate, Low, to None; AUC: unit not given beside the values
Procedure: as §1
as §2, with “The tumor organoids were grown and expanded by supplying organ- and patient-specific growth factors and nutrients.” left out
The results were analyzed using a “SEngine Precision Medicine” (SPM) scoring system to assess the sensitivity and personalization of each tumor organoid to endoxifen. […]
This example describes testing endoxifen efficacy against 17 distinct cancer types in patient-derived tumor organoids (PDTOs). […] For each PDTO sample, the drug response was measured using a luminescent readout over a range of endoxifen concentrations. The drug response was evaluated based on the area under the fitted dose response curve (AUC) and the SPM scoring system. […] The area under the curve was calculated from the normalized curve. […]
The SPM scoring system evaluated whether a PDTO was unresponsive or responsive to endoxifen and the degree of drug response for PDTOs that were responsive to endoxifen. […]

[5] = melanoma PDTOs, each line one patient sample

For `CC/C(=C(\c1ccc(O)cc1)c1ccc(OCCNC)cc1)c1ccccc1` [Endoxifen, 4-hydroxy-N-desmethyltamoxifen], the “Personalization Category” value [1] was “None”, the “Response Category” value [1] was “None (no response (SPM 1-8))” and the “Sensitivity Category” value [1] was “None”. For the same compound, the AUC ([1]; normalized area under fitted dose response curve) was 0.9719 and 1.0448 and 1.0001, the “SPM Score” value ([1]; score range 1-15) was 1 and the IC50 ([2]; Homo sapiens, skin cancer organoid assays, multiple skin cancers (summary statement)) was < 10 µM. For the same compound, the “Personalization Category” value [2, 5] was “Low and Good and High”, the “Response Category” value [2, 5] was “Low (low response (SPM 9)); also recorded: Moderate (moderate response (SPM 10-11)); also recorded: Good (good response (SPM 12-13))” and the “Sensitivity Category” value [2, 5] was “Low and Moderate”. For the same compound, the IC50 ([2]; melanoma PDTOs, each line one patient sample, four-parameter logistic fit) was 2.74 µM and 3.3 µM and 1.44 µM and 7.06 µM, the AUC ([2]; melanoma PDTOs, each line one patient sample, normalized area under fitted dose response curve) was 0.8952 and 0.7865 and 0.6541 and 0.8094 and the “SPM Score” value ([2]; melanoma PDTOs, each line one patient sample, score range 1-15) was 9 and 11 (2×) and 13. For the same compound, the IC50 ([3]; Homo sapiens, patient 1, four-parameter logistic fit) was 7.25 µM, the “Personalization Category” value ([3]; patient 1) was “None” and the “Sensitivity Category” value ([3]; patient 1) was “None”. For the same compound, the AUC ([3]; patient 1, normalized area under fitted dose response curve) was 0.9384, the “SPM Score” value ([3]; patient 1, score range 1-15) was 1 and the “Personalization Category” value ([4]; patient 21) was “None”. The AUC ([4]; patient 21, normalized area under fitted dose response curve) was 0.9995 and the “SPM Score” value ([4]; patient 21, score range 1-15) was 1.
